In patent publication US20250304568A1, “PYRIMIDINES FOR DEGRADING BRUTON'S TYROSINE KINASE” (AbbVie Inc., priority 2022, published 2025):

Tests used:
[1] = target: His-tagged Cereblon/DDB1 complex (Homo sapiens (Human), UniProt Q96SW2); test: Cereblon binding assay (AlphaLISA Human Cereblon Binding Kit, competition); conditions: 10 μM top dose, biotinylated ligand competition; read-out: CRBN IC50
Method: Cereblon binding was measured in vitro using an AlphaLISA® Human Cereblon Binding Kit (PerkinElmer, Waltham, MA) according to the manufacturer's protocol (“Alpha” refers to Amplified Luminescent Proximity Homogeneous Assay). In this assay, donor beads and acceptor beads come into proximity through ligand binding to CRBN protein. Excitation of the donor beads provokes the release of singlet oxygen that triggers a cascade of energy transfer reactions to the acceptor beads, resulting in a sharp peak in light emission at 615 nm.
Specifically, nickel chelate acceptor beads (PerkinElmer AL108M) were used to capture a 6×HIS-tagged CRBN protein, and streptavidin-coated donor beads (PerkinElmer 6760002) were used to capture 50 nM biotinylated ligand. […]
Detection: 10 μL detection reagents were added in low light conditions containing nickel chelate acceptor beads and streptavidin donor beads (Perkin Elmer 6760002), resulting in a final concentration 20 μg/ml. Plates were incubated 1 hour and read on a PerkinElmer™ Envision™ plate reader (680 nm excitation and […] emission settings). The IC50 of each compound was determined by calculating percent inhibition from no drug and no protein controls, and the Ki of each compound was calculated using the Cheng-Prusoff transformation. From the Ki, the ICs50 values were determined. […]

[2] = target: Human BTK enzyme, wild-type (Homo sapiens (Human), UniProt Q06187); test: BTK screening: Btk kinase activity, electrophoretic mobility shift assay (MSA); format: biochemical; conditions: 50 μM ATP, 0.5 nM BTK enzyme, 15 minutes pre-incubation
Method: Btk kinase activity was measured in vitro using an electrophoretic mobility shift assay (MSA). The ability of Btk to phosphorylate a fluorescent peptide substrate (FAM-GEEPLYWSFPAKKK-NH2) was measured. The kinase reactions were assembled in a total volume of 25 μL per well in 384 well plates. The following was added to each well: compound buffer (or control); enzyme buffer; and substrate buffer, as further described below. […]
The terminated reactions were analyzed using a 12 channel LABCHIP® 3000 microfluidic detection instrument (available from Caliper Life Sciences, Waltham, MA). […] As substrate and product peptides were separated, two peaks of fluorescence were observed. Change in the relative fluorescence intensity of the substrate and product peaks was the parameter measured, reflecting enzyme activity. […] Capillary electrophoregrams (RDA acquisition files) were analyzed using HTS Well Analyzer software (available from Caliper Life Sciences, Waltham, MA).
Activity in each sample was determined as the product to sum ratio (PSR): P/(S+P), where P was the peak height of the product peptide and S was the peak height of the substrate peptide. For each compound, enzyme activity was measured at various concentrations (12 concentrations of compound spaced by 3× dilution intervals). […]

[3] = tested on: TCL1-driven CLL bearing BTK^C481S mutation; test: TCL1-driven CLL bearing BTK^C481S mutation in C57BL/6 mice, circulating leukemia burden; format: in vivo
Description: Eμ-TCL1 CLL transgenic mice (Crogen Pharmaceuticals LLC) were crossed with […] knock-in mice (AbbVie) to generate Eμ-TCL1 transgenic mice carrying the […] mutation. The leukemic splenocytes from these BTK^C481S Eμ-TCL1 transgenic mice (Passage 1) were transplanted intravenously into C57BL/6 mice, leading to CLL development in the peripheral blood and spleen. When circulating CLL burden (CD5+CD19+ cells as described below) in the recipient mice reached over 90%, their splenocytes (Passage 2) containing high CLL burden were cryopreserved and used for CLL efficacy studies. […]
To determine the absolute/total leukocyte numbers, complete blood counts were determined for each mouse using the Genesis™ veterinary hematology analyzer (Oxford Science Inc.).
Cells isolated from murine peripheral blood mononuclear cells (PMBCs) were collected to determine antigen expression. […] Cells were gated on CD45+, and thereafter the percentage of cells that were CD5+CD19+ from that subset was calculated. […]
Whole blood was collected weekly post tumor implantation via submandibular cheek bleeding. Circulating leukemic burden was calculated by multiplying absolute/total leukocyte count with the percentage of the leukocytes have the immunophenotype CD19^+CD5^+. […]

Row | SMILES | IC50 [1] [nM] | IC50 [2] [nM] | CLL burden control (no increase from the initial tumor burden) ([3]; Dosage 3 and Dosage 4, once daily (QD) for 19 days) | circulating leukemia burden (CD19+CD5+ CLL cells per μL) ([3]; once daily (QD) for 19 days, Dosage 1 to 4, dose-dependent manner, FIG. 1)
1 | Cc1c([C@@H](C)NC(=O)c2nc(C(C)(C)C)no2)ccc(-c2cc(Nc3ccc(N4CCN(CCc5ccc(N6CCC(=O)NC6=O)cc5)C[C@@H]4C)cn3)ncn2)c1F [Example 10, 3-tert-butyl-N-[(1R)-1-{4-[6-({5-[(2S)-4-{2-[4-(2,4-dioxo-1,3-diazinan-1-yl)phenyl]ethyl}-2-methylpiperazin-1-yl]pyridin-2-yl}amino)pyrimidin-4-yl]-3-fluoro-2-methylphenyl}ethyl]-1,2,4-oxadiazole-5-carboxamide] | 6310 | 0.106 | – | –
2 | Cc1c([C@@H](C)NC(=O)c2nc(C(C)(C)C)no2)ccc(-c2cc(Nc3ccc(N4CCN(CCc5ccc(N6CCC(=O)NC6=O)cc5)CC4)cn3)ncn2)c1F [Example 11, 3-tert-butyl-N-{(1R)-1-[4-(6-{[5-(4-{2-[4-(2,4-dioxo-1,3-diazinan-1-yl)phenyl]ethyl}piperazin-1-yl)pyridin-2-yl]amino}pyrimidin-4-yl)-3-fluoro-2-methylphenyl]ethyl}-1,2,4-oxadiazole-5-carboxamide] | 2150 | 0.0973 | – | –
3 | Cc1cc(-c2cc(Nc3ccc(N4CCN(CCc5ccc(N6CCC(=O)NC6=O)cc5)C[C@@H]4C)cn3)ncn2)ccc1[C@@H](C)NC(=O)c1nc(C(C)(C)C)no1 [Example 1, 3-tert-butyl-N-[(1R)-1-{4-[6-({5-[(2S)-4-{2-[4-(2,4-dioxo-1,3-diazinan-1-yl)phenyl]ethyl}-2-methylpiperazin-1-yl]pyridin-2-yl}amino)pyrimidin-4-yl]-2-methylphenyl}ethyl]-1,2,4-oxadiazole-5-carboxamide] | – | – | Complete CLL burden control | controlled circulating leukemia burden
